Tests used:
[1] = Cytotoxicity against HCV infected human Huh5-2 cells assessed as microscopically detectable alteration in cell morphology after 3 days; format: cell-based, Huh-5-2; conditions: HCV infected Huh5-2 cells
Hepatitis C virus = assay: Antiviral activity against HCV infected in human Huh5-2 cells assessed as reduction of virus-induced cytopathogenicity after 4 days; format: functional, organism-based, Hepacivirus hominis; conditions: Huh-5-2, 96 h
[2] = Selectivity index, ratio of CC50 for human Huh 5-2 cells to EC50 for HCV

| Structure (SMILES) | CC50 at 72 h [1] | EC50 (Hepatitis C virus) | Ratio CC50/EC50 [2] |
| --- | --- | --- | --- |
| COc1cccc2cc(CSc3nc4ccccc4n3[C@H]3C[C@@H](OC(C)=O)[C@H](OC(C)=O)[C@@H](COC(C)=O)O3)c(=O)oc12 | 26 µM | 12 µM | 2.2 |
| CC(=O)OC[C@H]1O[C@@H](n2c(SCc3ccc([N+](=O)[O-])cc3)nc3ccccc32)[C@H](OC(C)=O)[C@@H](OC(C)=O)[C@@H]1OC(C)=O | 83 µM | 63 µM | 1.3 |
| O=c1oc2ccccc2cc1CSc1nc2cncnc2[nH]1 | 109 µM | 2 µM | 54 |
| O=c1oc2ccc(Br)cc2cc1CSc1nc2cccnc2[nH]1 | 128 µM | 6.8 µM | 19 |
| Cc1ccc2[nH]c(SCc3ccncc3)nc2c1 | 199 µM | 199 µM | 1 |
| CC(=O)OC[C@H]1O[C@@H](n2c(=S)[nH]c3ccccc32)[C@H](OC(C)=O)[C@@H](OC(C)=O)[C@@H]1OC(C)=O | 104 µM | 104 µM | 1 |
| O=c1oc2ccccc2cc1CSc1nc2cccnc2[nH]1 | 95 µM | 59 µM | 1.6 |
| c1ccc2cc(CSc3nc4ccccc4[nH]3)ccc2c1 | 56 µM | 76 µM | 0.73 |
| Fc1ccc2[nH]c(SCc3ccccc3)nc2c1 | 197 µM | 197 µM | 1 |
| Clc1cc2nc(SCc3ccncc3)[nH]c2cc1Cl | 107 µM | 100 µM | 1.1 |
| O=c1oc2ccccc2cc1CSc1nc2ccccc2[nH]1 | 90 µM | 27 µM | 3.4 |
| COc1cccc2cc(CSc3nc4ccccc4[nH]3)c(=O)oc12 | 27 µM | 10 µM | 2.8 |
| O=c1oc2ccccc2cc1CSc1nc2ccccc2s1 | 153 µM | 80 µM | 1.9 |
| O=c1oc2ccc(Br)cc2cc1CSc1nc2ccccc2o1 | 131 µM | 12 µM | 11 |
| COc1cccc2cc(CSc3nc4ccccc4s3)c(=O)oc12 | 40 µM | 29 µM | 1.4 |
| O=c1oc2ccccc2cc1CSc1nc2ccccc2o1 | 45 µM | 12 µM | 3.9 |
| COc1cccc2cc(CSc3nc4cncnc4[nH]3)c(=O)oc12 | 94 µM | 20 µM | 4.8 |
| CC(=O)OC[C@H]1O[C@@H](n2c(SCc3cc4cc(Br)ccc4oc3=O)nc3ccccc32)C[C@@H](OC(C)=O)[C@@H]1OC(C)=O | 16 µM | 4.1 µM | 4 |
| CC(=O)OC[C@H]1O[C@@H](n2c(SCc3cc4cc(Br)ccc4oc3=O)nc3cc(Cl)c(Cl)cc32)C[C@@H](OC(C)=O)[C@@H]1OC(C)=O | 11 µM | 1.8 µM | 6.4 |
| COc1cccc2cc(CSc3nc4cccnc4[nH]3)c(=O)oc12 | 30 µM | 11 µM | 2.8 |
| O=c1oc2ccccc2cc1CSc1nc2cc(Cl)c(Cl)cc2[nH]1 | 74 µM | 15 µM | 4.9 |
| COc1cccc2cc(CSc3nc4ccccc4o3)c(=O)oc12 | 18 µM | 19 µM | 0.96 |
| Fc1ccc2[nH]c(SCc3ccncc3)nc2c1 | 196 µM | 184 µM | 1.1 |
